Source: patent US6468983B2, “RNase L activators and antisense oligonucleotides effective to treat telomerase-expressing malignancies” (The Cleveland Clinic Foundation, priority 1997, dated 2002)
Where “and” joins values, the source holds several entries; their conditions need not be identical. Identical values can stand only once. Entries after “also recorded” stand apart in the source; their conditions may differ.

Experiments:
[1] = tested on: U251-MG cells; experiment: TUNEL assay on cultured cells treated with spA4-anti-hTR; type: cell-based, human; settings: treated cells fixed and stained
[2] = tested on: normal human astrocytes (PIN); experiment: Cell viability assay, trypan blue, same protocol on telomerase-negative normal astrocytes; type: cell-based; settings: same protocol as the tumor cells, over the treatment period
Experimental: The cytotoxic effect of 2-5A activator antisense complexes on tumor cells was determined using the trypan blue dye exclusion assay. Tumor cells were seeded at 10^4 cells/well (0.1 ml) in 96-well flat-bottomed plates and incubated overnight at 37° C. Then, oligonucleotides (5 micromolar) in water were added into cells every 12 hr. On successive days the cells were harvested and 25% of the total was examined microscopically to determine the percentage of viable cells, another 25% was replated to continue treatment and the remaining 50% were used for the TRAP assay.

[3] = tested on: U373-MG tumors; experiment: Subcutaneous xenografts in nude mice, intratumoral oligonucleotide; type: in vivo, Balb/c nude mice; settings: 5 nmol intratumoral daily for 7 days
Experimental: (§1) U251-MG and U373 MG tumor cells (1.0×10^6 cells in 0.1 ml serum free DMEM and 0.1 ml Matrigel) were injected subcutaneously into the right flank of 8-12 week-old female Balb/c nude mice (5 mice for each treatment group). Tumor growth was monitored using calipers every 2- or 3-days. Tumor volume (V) was calculated as (L×W^2)/2, where L=length (mm) and W=width (mm). Oligonucleotide treatment was initiated when the tumors reached an average tumor volume of 60-100 mm^3 (about four to five weeks after injection). Oligonucleotides (5 nmol/20 microliter sterile distilled water) were administered by injecting them directly into the tumor every 24 hr for 7-14 days. Some experiments included lipofectamine at 1 microliter per 20 microliters final volume of oligonucleotide solution. Mice were sacrificed by cervical dislocation the day after the final injection and the tumors were removed, frozen rapidly and 12 μm sections were prepared for histological studies. During all of these experiments, which were approved by the CCF Research Programs Committee, the animals were housed and handled in accordance with the National Institutes of Health guidelines.

[4] = tested on: U251-MG tumors; experiment: as above; type: in vivo, Balb/c nude mice; settings: for reduction in tumor size during the treatment period: intratumoral daily for 14 days, relative to starting size
Experimental: as §1

[5] = tested on: renal cell carcinoma cell line, RCC; experiment: Viable cell count, daily oligonucleotide plus lipofectamine; type: cell-based, human; settings: 0.5 micromolar daily plus lipofectamine
Experimental: (§2) Cells (10,000/well) were seeded on 96 well tissue culture dishes, and treated every 24 hours. A 10× concentrated mixture of oligonucleotides plus lipofectamine in water was prepared containing 5 micromolar oligonucleotide and 80 microgram per ml lipofectamine™ (Gibco/BRL) and incubated for 10 min at room temperature. Media was removed from the cells, 10 microliters of the oligonucleotide/lipofectamine mixture was added directly to the cultured cells followed by 90 microliters of media plus serum. The media was changed with oligonucleotide/lipofectamine treatments every 24 h. Cells were passaged when the control cells reached confluency, and viable cells were counted after staining with Trypan Blue (GibcoBRL). The numbers of cells treated only with lipofectamine were used as the control to calculate percentages of cell survival or viability.
(§3) Similarly, the viability of the breast cancer cell line, MDA468, was reduced by 64% by SpA4-anti-hTR, while the control oligonucleotides reduced cell viability by <20% (FIG. 6). Viability of the human melanoma cell line, A375, was reduced by 43% in three days by SpA4-anti-hTR, while the control oligonucleotides had no effect (FIG. 7). […] Viability of a third human melanoma cell line, SK-MEL-5, was reduced by 43% by SpA4-anti-hTR, with minimal effects by the control oligonucleotides (FIG. 7). Two prostate tumor cells lines, PC3 and DU145, were suppressed by SpA4-anti-hTR treatments by 45% and 60%, respectively (FIGS. 6 and 10). […] The viability of the malignant glioma cell line, U373, was reduced by about 60% in 3 days, with intermediate effects by the control oligonucleotides (FIG. 6). Therefore, the proliferation and survival of every tumor cell type tested was inhibited by SpA4-anti-hTR. […] In contrast, there was no apoptosis detected in the control cells treated with lipofectamine without oligonucleotide (FIG. 12 upper panel).

[6] = tested on: prostate tumor cell line DU145; experiment: as above; type: cell-based, human; settings: DU145, 0.5 micromolar daily plus lipofectamine
Experimental: as §2, §3

[7] = tested on: breast cancer cell line, MDA468; experiment: as above; type: cell-based, human; settings: MDA468, 0.5 micromolar daily plus lipofectamine
Experimental: as §2, §3

[8] = tested on: prostate tumor cell line PC3; experiment: as above; type: cell-based, human; settings: PC3, 0.5 micromolar daily plus lipofectamine
Experimental: as §2, §3

[9] = tested on: RCC tumors; experiment: Subcutaneous tumors in nude mice, intratumoral oligonucleotide plus lipofectamine; type: in vivo
Experimental: (§4) RCC and A375 tumor cells (500,000 cells per tumor) were injected subcutaneously. The treatments, begun 8 days after tumor cell inoculation, was with 40 microliter of 25 micromolar SpA4-anti-hTR plus 1 microliter (2 microgram) lipofectamine injected in each tumor every day.

[10] = tested on: A375 tumors; experiment: as above; type: in vivo
Experimental: as §4

[11] = tested on: U251-MG tumors; experiment: In situ end-labeling (TUNEL) of DNA in subcutaneous xenografts; type: in vivo, nude mice; settings: 5 nmol every day for 7 days
Excerpt: FIG. 14. In situ end-labeling of DNA in subcutaneous xenografts of nude mice. After treatment with oligonucleotides (5 nmol, every day) for 7 days, the mice were sacrificed and the subcutaneous mass was removed, frozen, and sectioned on a cryostat. The tumor specimens from U251-MG cells were counterstained by hematoxylin and eosin following the TUNEL technique. Arrows show representatives of tumor cells positive for DNA fragmentation (×400). (above) spA4-anti-(M6)hTR, 7 Day; (below) spA4-anti-hTR, 7 Day.
To further determine whether treatment with oligonucleotides induced apoptosis, tumor cells and tissues were stained by the terminal deoxynucleotidyl transferase (TdT)-mediated DUTP nick end labeling (TUNEL) technique using Apo-Tag kit (peroxidase conjugated) (Oncor Inc., Gaithersburg, Md.). The staining of apoptotic cells was done on U373MG cells. Oligonucleotides with lipofectamine was added to the cells every day. The final concentrations were 0.5 micromolar and 8 microgram/ml for oligo and lipofectamine, respectively. […]
U251-MG and U373 MG tumor cells (1.0×10^6 cells in 0.1 ml serum free DMEM and 0.1 ml Matrigel) were injected subcutaneously into the right flank of 8-12 week-old female Balb/c nude mice (5 mice for each treatment group). Tumor growth was monitored using calipers every 2- or 3-days. Tumor volume (V) was calculated as (L×W^2)/2, where L=length (mm) and W=width (mm). […]

Sp5′A2′p(5′A2p)3-[(Bu)p]2-5′GCG CGG GGA GCA AAA GCA C3′-3′T5′ (antisense GCGCGGGGAGCAAAAGCAC; 5'-thiophosphate 2-5A tetramer, butanediol linkers, 3'-3'T cap, chemistry not fully specified) [spA4-anti-hTR, 2-5A tetramer linked by butanediol linkers to 19-mer antisense against human telomerase RNA nucleotides 76 to 94]
apoptotic cell death by TUNEL (in words) [1]: increased number of darkly staining nuclei
reduction in cell viability [2]: less than 5%
reduction in cell viability ([2]; listed as SpA4-anti-hTR): 2-3%
tumor growth (in words) [3]: significantly suppressed the growth; also recorded: failed to grow progressively
tumor growth (in words) ([4]; 5 nmol intratumoral daily for 7 days): significantly suppressed the growth; also recorded: failed to grow progressively
average net weight of the tumors after treatment ([4]; 14 days treatment): 54.0 ± 28.7 mg
further change in tumor size (in words) ([4]; days 8-14 of the treatment compared with first 7 days): only a marginal additional reduction in size
reduction in tumor size during the treatment period [4]: 48% and 50%
reduction in tumor size during the treatment period ([4]; listed as 2-5A-anti-hTR): 50%
effect on growth/viability (in words) ([5]; 3 days): specifically suppressed growth
reduction in viability ([5]; three days): 61%
effect on growth/viability (in words) [6]: specifically suppressed growth
suppression of cells [6]: 60%
effect on growth (in words) [7]: specifically suppressed growth
reduction in viability [7]: 64%
effect on growth/viability (in words) [8]: specifically suppressed growth
suppression of cells [8]: 45%
tumor cell growth (in words) ([9]; RCC subcutaneous, oligonucleotide plus lipofectamine from day 8): Suppression
increase in tumor size ([9]; RCC, 40 microliter of 25 micromolar plus lipofectamine intratumoral daily, seven day period): 14%
increase in tumor size ([10]; A375, 40 microliter of 25 micromolar plus lipofectamine intratumoral daily, seven days): 17%
tumor cell growth (in words) ([10]; A375 subcutaneous, oligonucleotide plus lipofectamine from day 8): Suppression
apoptotic cells observed in tumors (TUNEL) [11]: many apoptotic cells
